This is an account of results in patent US11891703B2, “Corrosion inhibition package” (DORF KETAL CHEMICALS FZE, priority 2017, dated 2024).

The nature of data set [1]: Corrosion test of acid compositions with corrosion inhibition package on 1018 steel coupons. The conditions noted are these: Table 3, 1.2:1 HCl-Urea, 50% dilution in seawater, 90° C., 6 hours, 1% package + 1% CI-1A. The source says: Various types of steel alloy coupons were subjected to corrosion testing in the presence of conventional, synthetic and modified acid compositions using corrosion inhibitor components according to preferred embodiments of the present invention at various temperatures. Coupons of various grades of steel alloys (indicated in each table) were exposed to the various listed compositions for various periods of time at varying temperatures.
The following corrosion testing outlined in the tables below for a number of different corrosion inhibition packages according to the present invention in the presence of a synthetic or modified acid composition was carried out diluted with saline water (in most cases) at various temperatures for various durations of exposure. Depending on the intended use/application of an acidic fluid composition comprising a corrosion inhibitor package according to the present invention, a desirable result would be one where the lb/ft^2 corrosion number is at or below 0.05. A more desirable would be one where the corrosion (in lb/ft^2) is at or below 0.02. Generally, seawater has the deleterious effect of potentiating corrosion, consequently corrosion inhibition packages which follow the guidelines or regulations for offshore oil production are highly desirable for operators. Where applicable the fluids (acid compositions) were diluted as indicated.

For data set [2] the following is noted: death can occur in 2-3 minutes; cited from earlier work.
The conditions of data set [3]: cited from earlier work.
For data set [4] the following is noted: cited from earlier work. The source holds these as a separate data set.

Molecules are shown by their SMILES.

`O=CC=Cc1ccccc1` [ZA, Cinnamaldehyde]: in data set [1], the “Corrosion lb/ft2” value is on record as 0.008 lb/ft2, the “Corrosion rate Mils/yr” value was 296.053 Mils/yr, the Corrosion rate mm/year came to 7.52 mm/year and the Wt loss was determined as 0.168 g.
For `Cl` [Hydrogen chloride gas, Hydrogen chloride], the “level at which death can occur” value in data set [2] is given as 1300-2000 ppm.
For the compound `CCCCCCOCCOCCOCCO` [NOVEL® 6-3 Ethoxylate, CH3 (CH2)4CH2(OCH2CH2)3OH], in data set [3], the solubility in hydrocarbons result is “soluble” and the solubility in water result is recorded as “sparingly soluble”.
Consider `C#CCO` [propargyl alcohol], for which the “performance on Cr-13 alloys (pitting)” value in data set [4] is listed as “poor performance”.
